Results on 25 molecules are retold here after PubChem BioAssay (NCI).

Some test systems named below: SK-MEL-2 melanoma; ACHN renal; OVCAR-5 ovarian; OVCAR-3 ovarian; LOX IMVI melanoma; SF-268 CNS; HCT-116 colon; SF-539 CNS; DU-145 prostate; NCI/ADR-RES ovarian.
What all share (assay): NCI-60 cell line screen, 48 h

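Results reflect a 48-hour exposure of cells in 96-well plates to compound at five concentrations. TGI: concentration producing complete growth inhibition.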

As for `CC(=O)OCC(=O)[C@@]1(O)CC[C@H]2[C@@H]3CCC4=CC(=O)[C@H](C)C[C@]4(C)[C@H]3[C@@H](O)C[C@@]21C`, the TGI in the test with SK-MEL-2 melanoma, in the test on ACHN renal, in the test with OVCAR-5 ovarian, in the test on OVCAR-3 ovarian, with LOX IMVI melanoma and in the test with SF-268 CNS was > 100 µM throughout. Also, the TGI in the test on HCT-116 colon and with SF-539 CNS was > 100 µM in each case.
With `CC(C)OP(=O)(OC(C)C)C(C(C)C)N(C)/C(N)=N\C1=NC(C(F)(F)F)(C(F)(F)F)N=C(C(C(F)(F)F)C(F)(F)F)O1` (stereo not drawn), the TGI in the test with SK-MEL-2 melanoma was > 100 µM; in the test on ACHN renal, 8.67 µM; in the test on OVCAR-5 ovarian, 11.4 µM; in the test on OVCAR-3 ovarian, 31.6 µM; in the test on LOX IMVI melanoma, 3.77 µM; in the test with SF-268 CNS, 12 µM. For the same molecule, the TGI with HCT-116 colon turned out to be 6.6 µM; in the test on DU-145 prostate it was 25.6 µM; with SF-539 CNS, 11.8 µM.
Consider `COc1cc(/C=C/C(=O)c2sc(-n3nc(-c4ccccc4)cc3-c3ccccc3)nc2C)ccc1O`, for which the TGI with SK-MEL-2 melanoma, in the test on ACHN renal, in the test on OVCAR-5 ovarian, with OVCAR-3 ovarian, in the test on LOX IMVI melanoma and in the test with SF-268 CNS was > 100 µM throughout. The TGI in the test with SF-539 CNS is > 100 µM.
For `CC1C2CC(CC(=O)N2)C1(C)C` (stereo not drawn), the TGI with ACHN renal, with OVCAR-5 ovarian, in the test on OVCAR-3 ovarian, in the test on SF-268 CNS, in the test on HCT-116 colon and in the test with DU-145 prostate was > 100 µM each time. Also, the TGI with SF-539 CNS was > 100 µM.
Turning to `COC(=O)c1[nH]c(=S)[nH]c(=O)c1-c1ccc(Cl)cc1`, the TGI with SK-MEL-2 melanoma, in the test with ACHN renal, in the test with OVCAR-5 ovarian, in the test with OVCAR-3 ovarian, in the test with LOX IMVI melanoma and in the test on SF-268 CNS was > 50 µM in each case. The TGI in the test with HCT-116 colon and in the test with SF-539 CNS was > 50 µM throughout.
Consider `COc1ccc(/C=C2\OC(=O)C(Cl)=C2c2ccc(OC)cc2)cc1`, for which the TGI in the test with SK-MEL-2 melanoma, in the test with ACHN renal, in the test on OVCAR-3 ovarian, in the test on LOX IMVI melanoma, with SF-268 CNS and in the test with DU-145 prostate was > 100 µM each time. For the same molecule, the TGI in the test on SF-539 CNS was > 100 µM.
As to `NC(=O)OCC(COc1ccc(Cl)cc1)OC(=O)c1ccccc1Cl` (stereo not drawn), the TGI with SK-MEL-2 melanoma was found to be 34.1 µM; in the test with ACHN renal, 95.1 µM; in the test with OVCAR-5 ovarian it was 62.8 µM; with OVCAR-3 ovarian, 40.7 µM; with LOX IMVI melanoma it was 27.9 µM; in the test with SF-268 CNS, 79.1 µM. In addition, the TGI in the test on HCT-116 colon came out at 30.7 µM; with SF-539 CNS, 36.1 µM.
Take `Cc1c2ccncc2cc2c1sc1ccncc12`: the TGI amounted to 17.8 µM with SK-MEL-2 melanoma; 4.22 µM with ACHN renal; 19.7 µM with OVCAR-5 ovarian; 27.7 µM with OVCAR-3 ovarian; 25.6 µM in the test on LOX IMVI melanoma; 14.4 µM in the test with SF-268 CNS. For the same molecule, the TGI in the test with HCT-116 colon was determined as 13.1 µM; in the test on DU-145 prostate, 6.9 µM; in the test on SF-539 CNS it was 17.6 µM.
Consider `CCOC(=O)c1nc2ccc(C(F)(F)F)cc2nc1NCc1ccc(Cl)c(Cl)c1`, for which the TGI in the test on SK-MEL-2 melanoma is > 100 µM; with ACHN renal it was 68 µM; with OVCAR-5 ovarian it was > 100 µM; with OVCAR-3 ovarian, 66.2 µM; in the test with LOX IMVI melanoma, > 100 µM; in the test on SF-268 CNS, > 100 µM. The TGI in the test with HCT-116 colon, in the test on NCI/ADR-RES ovarian and in the test with SF-539 CNS was > 100 µM in each case.
Regarding `COc1cc(NC(C)=O)c2[nH]c3c(C)cc(NC(C)=O)c(C)c3c2c1`, the TGI in the test with SK-MEL-2 melanoma, in the test on ACHN renal, in the test with OVCAR-3 ovarian, with SF-268 CNS, with HCT-116 colon and with SF-539 CNS was > 100 µM throughout.
Consider `NS(=O)(=O)c1cc2c(cc1Cl)NC(C(=O)c1cc(=O)c3ccc(O)cc3o1)=NS2(=O)=O`, for which the TGI in the test on SK-MEL-2 melanoma, with ACHN renal, in the test on OVCAR-5 ovarian, with OVCAR-3 ovarian, in the test on LOX IMVI melanoma and with SF-268 CNS was > 100 µM in each case. The TGI in the test on HCT-116 colon and in the test with SF-539 CNS was > 100 µM in each case.
Take `c1ccc(Nc2nnc(CSc3nc(-c4ccccc4)c(-c4ccccc4)[nH]3)s2)cc1`: the TGI with SK-MEL-2 melanoma was 38.4 µM; in the test with ACHN renal it was > 100 µM; in the test on OVCAR-5 ovarian, 43.6 µM; in the test with OVCAR-3 ovarian it was 26.7 µM; in the test on LOX IMVI melanoma, 31.8 µM; in the test on SF-268 CNS, 46.2 µM. The values for the TGI in the test on HCT-116 colon and with SF-539 CNS were 35.7 µM and 43.6 µM, respectively.
As for `C=CCONC(=O)c1ccc(Cl)cc1`, the TGI in the test with SK-MEL-2 melanoma, in the test on ACHN renal, in the test with OVCAR-5 ovarian, with LOX IMVI melanoma, in the test on SF-268 CNS and with HCT-116 colon was > 100 µM in each case. Moreover, in the test with SF-539 CNS, the TGI was > 100 µM.
Consider `O=S(=O)([O-])[O-].[Fe+2].c1ccc(/C(=N\Nc2ccccn2)c2ccccn2)cc1`, for which the TGI with SK-MEL-2 melanoma came to 5.74 µM; in the test on ACHN renal, 5.35 µM; in the test with OVCAR-5 ovarian, 7.07 µM; in the test on OVCAR-3 ovarian, 2.67 µM; in the test on LOX IMVI melanoma, 11.8 µM; in the test on SF-268 CNS, 19.3 µM. In addition, the TGI in the test with HCT-116 colon is 4.56 µM; with SF-539 CNS, 6.42 µM.
Turning to `CCOC(=O)CSc1ccnc(=O)[nH]1`, the TGI in the test with SK-MEL-2 melanoma, in the test with ACHN renal, in the test with OVCAR-5 ovarian, in the test with OVCAR-3 ovarian, in the test on LOX IMVI melanoma and in the test with SF-268 CNS was > 100 µM in each case. The TGI in the test on HCT-116 colon and with SF-539 CNS was > 100 µM each time.
For `CN(C(=O)C12C3C4C1C1C2C3C41I)C(C)(C)C` (stereo not drawn), the TGI with SK-MEL-2 melanoma, in the test on ACHN renal, in the test with OVCAR-5 ovarian, in the test on OVCAR-3 ovarian, with LOX IMVI melanoma and with SF-268 CNS was > 100 µM throughout. Also, the TGI in the test with HCT-116 colon and in the test with SF-539 CNS was > 100 µM each time.
With `COc1cc(/C=C\c2ccccn2)cc(OC)c1OC`, the TGI in the test on ACHN renal, in the test on OVCAR-5 ovarian, with OVCAR-3 ovarian, in the test on LOX IMVI melanoma, in the test with SF-268 CNS and in the test on HCT-116 colon was > 100 µM in each case. In the test on SF-539 CNS, the TGI was > 100 µM.
As to `CC#COP(=O)(OCC)OCC`, the TGI in the test on SK-MEL-2 melanoma, in the test on ACHN renal, in the test on OVCAR-5 ovarian, in the test on OVCAR-3 ovarian, in the test with LOX IMVI melanoma and in the test on SF-268 CNS was > 100 µM each time. Moreover, the TGI in the test with HCT-116 colon and in the test with SF-539 CNS was > 100 µM throughout.
With `Cn1c(O)c(C(=O)Nc2cccs2)c(=O)[nH]c1=S`, the TGI came to 30.4 µM in the test with SK-MEL-2 melanoma; 43.7 µM in the test with ACHN renal; 69.5 µM in the test on OVCAR-5 ovarian; 49.8 µM in the test with OVCAR-3 ovarian; 31 µM in the test on LOX IMVI melanoma; 41.9 µM with SF-268 CNS. For the same molecule, the TGI in the test on HCT-116 colon was 26.5 µM; with SF-539 CNS, 30.3 µM.
Take `NC(=S)NNC(=O)/C(=C/c1ccc(/C=C(\NC(=O)c2ccccc2)C(=O)NNC(N)=S)cc1)NC(=O)c1ccccc1`: the TGI in the test on SK-MEL-2 melanoma, in the test on ACHN renal, in the test with OVCAR-5 ovarian, with OVCAR-3 ovarian, in the test with LOX IMVI melanoma and in the test with SF-268 CNS was > 100 µM in each case. Also, the TGI in the test with HCT-116 colon and in the test on SF-539 CNS was > 100 µM in each case.
For `CC(C)=CCCC1(C)C=Cc2c(c(C)cc3c2[nH]c2cc(O)ccc23)O1` (stereo not drawn), the TGI in the test on SK-MEL-2 melanoma, in the test on ACHN renal, in the test on OVCAR-5 ovarian, with OVCAR-3 ovarian, with LOX IMVI melanoma and in the test with SF-268 CNS was > 25 µM each time. For the same molecule, the TGI with HCT-116 colon and with SF-539 CNS was > 25 µM throughout.
Turning to `CCCCCCn1c(SCC)c2ccccc2c1-c1nc(F)nc(F)n1`, the TGI in the test with SK-MEL-2 melanoma, in the test on ACHN renal, in the test on OVCAR-5 ovarian, in the test with OVCAR-3 ovarian, in the test on LOX IMVI melanoma and with SF-268 CNS was > 100 µM each time. Besides, the TGI with HCT-116 colon and with SF-539 CNS was > 100 µM throughout.
With `O=C(NO)c1ccc([N+](=O)[O-])cc1`, the TGI in the test on SK-MEL-2 melanoma, with OVCAR-3 ovarian, in the test on LOX IMVI melanoma, in the test with SF-268 CNS and with SF-539 CNS was > 100 µM throughout.
As for `CC1CC2OC(=O)C3CC(O)CC(=C23)[C@@]12C[C@@H](c1ccoc1)OC2=O` (stereo partly drawn), the TGI in the test on SK-MEL-2 melanoma, in the test on ACHN renal, in the test on OVCAR-5 ovarian, in the test with OVCAR-3 ovarian, with LOX IMVI melanoma and with SF-268 CNS was > 100 µM in each case. Also, the TGI with HCT-116 colon and in the test on SF-539 CNS was > 100 µM in each case.
As to `C[C@H]1[C@H](C)N(Cc2ccccc2)P(=O)(C(O)/C=C/c2ccccc2)N1Cc1ccccc1` (stereo partly drawn), the TGI was 9.66 µM in the test on SK-MEL-2 melanoma; > 25 µM with ACHN renal; 18.8 µM in the test on OVCAR-5 ovarian; 14.5 µM in the test with LOX IMVI melanoma; > 25 µM with SF-268 CNS; 11.6 µM with HCT-116 colon. Further, the values for the TGI in the test on NCI/ADR-RES ovarian and with SF-539 CNS were > 25 µM and 10.2 µM, respectively.
